The values below come from patent US10940139B2, “Compounds that interact with the Ras superfamily for the treatment of cancers, inflammatory diseases, rasopathies, and fibrotic disease” (Shy Therapeutics LLC, priority 2017, dated 2021).

Chain of KRas G12D/Q61H double mutant (P01116-2 other isoform, or with tags, fused parts or gaps G12D/Q61H): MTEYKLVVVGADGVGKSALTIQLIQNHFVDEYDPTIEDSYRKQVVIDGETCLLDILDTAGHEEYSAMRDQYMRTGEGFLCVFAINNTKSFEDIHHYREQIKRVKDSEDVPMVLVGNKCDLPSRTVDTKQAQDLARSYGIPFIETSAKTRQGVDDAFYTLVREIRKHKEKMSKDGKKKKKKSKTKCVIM

One assay has as its target KRas G12D/Q61H double mutant (Homo sapiens (Human), UniProt P01116, G12D/Q61H). As to the kind of experiment: Ras GTP binding domain inhibition assay (labeled GTP). The conditions noted are these: 20 μM compound; KRas G12D/Q61H double mutant; read-out: % Inhibition at 20 μM of K-Ras mutant and wild-type protein, KRas G12D Q61H. Put shortly: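 Fluorescence read-out of Cy3-/Cy5-GTP remaining bound to nickel-immobilized His-KRas after washes. Protein was coated overnight at 4° C, then exposed to compound for 3 h at room temperature before a 45 min labeled-GTP incubation.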
For `Cc1ccc(CN(Cc2ccco2)C(=O)C(c2ccccc2)c2ccccc2)o1`, the inhibition at 20 µM fell in the range of 25 to 50%.

On to `COC(=O)C1CCN(S(=O)(=O)NCCOc2ccc(C(C)(C)C)cc2)CC1`, for which the inhibition at 20 µM was 25 to 50%.

Consider `CCOC(=O)c1c(NC(C)=O)sc(Cc2ccc3c(c2)OCO3)c1C`, for which the inhibition at 20 µM lay within 25 to 50%.

On to `CCCN(CC1CC1)S(=O)(=O)Oc1ccc(N(C)S(=O)(=O)c2cccs2)cc1`, for which the inhibition at 20 µM fell in the range of 25 to 50%.

For `NCC(=O)NCc1ccc(Oc2ccc(F)c(F)c2)cc1C(F)(F)F`, the inhibition at 20 µM was 1 to 25%.

`O=C(COC1CCCC1)Nc1nnc(-c2ccccn2)[nH]1`: the inhibition at 20 µM was 51 to 75%.

As to `CCOc1ccc(Oc2ccc(C(F)(F)F)cc2NC(=O)CC(NC(C)=O)c2ccccc2)cc1` (stereo not drawn), the inhibition at 20 µM fell in the range of 1 to 25%.

Regarding `COc1ccc(COCC(CNC(=O)c2cc(C)cc(C)c2)OC(=O)c2cc(C)cc(C)c2)cc1` (stereo not drawn), the inhibition at 20 µM fell in the range of 25 to 50%.

Regarding `NC(=O)C1CCCN1Cc1cccc(NC(=O)c2ccccc2OCCOc2ccccc2)c1` (stereo not drawn), the inhibition at 20 µM is 25 to 50%.

As for `O=C(COCC(F)(F)F)Nc1nnc(-c2ccccn2)[nH]1`, the inhibition at 20 µM is 25 to 50%.

For the molecule `CC(=O)c1c(F)cccc1N1CCN(c2cccc(C(F)(F)F)c2)CC1`, the inhibition at 20 µM is 25 to 50%.

As to `COc1ccccc1CN(Cc1coc(-c2ccc(F)cc2)n1)Cc1cccs1`, the inhibition at 20 µM was 1 to 25%.

Consider `COC(=O)c1c(NC(=O)Cc2cc(OC)c(OC)c(OC)c2)sc2c1CCCCC2`, for which the inhibition at 20 µM is 25 to 50%.

`C=CCn1c(C)cc(C(=O)COC(=O)c2ccccc2Oc2ccccc2)c1C`: the inhibition at 20 µM lay in the range of 51 to 75%.

Take `O=C(Oc1ccc(Oc2ccccc2)cc1)c1ccccc1-c1ccc(C(F)(F)F)cc1`: the inhibition at 20 µM lay within 25 to 50%.

As for `CC1CC1COC(=O)c1sccc1S(=O)(=O)N1CCSCC1` (stereo not drawn), the inhibition at 20 µM lay in the range of 25 to 50%.

For `CCC(C)N(C(=O)CS(=O)(=O)c1nc(-c2ccccc2)cs1)C(C)CC` (stereo not drawn), the inhibition at 20 µM is 25 to 50%.

As to `COc1ccc(CCN2CCN(c3ccc(C#N)c(C(F)(F)F)c3)CC2)cc1`, the inhibition at 20 µM was 25 to 50%.

`COC(=O)c1ccoc1COc1ccc(C(=O)c2ccc(F)cc2)cc1`: the inhibition at 20 µM was in the range of 51 to 75%.

Take `O=c1c(Cc2cc(Cl)c3cccnc3c2O)c(O)oc2ccccc12`: the inhibition at 20 µM lay within 25 to 50%.

Turning to `Cc1ccc(S(=O)(=O)N2CCN(C(=O)CNC(=O)c3ncccc3O)CC2)s1`, the inhibition at 20 µM was 25 to 50%.

For the molecule `COCCCN(C(=O)c1ccc(-n2nc(C)c(Cl)c2C)cc1)S(=O)(=O)c1ccc(OC)cc1`, the inhibition at 20 µM was 25 to 50%.

In the case of `CCN(CCNC(=O)c1oc(-c2ccccc2)nc1C)c1ccccc1C`, the inhibition at 20 µM was 51 to 75%.

For `O=C(NN(Cc1ccccc1)Cc1ccccc1)c1n[nH]c(=O)c2ccccc12`, the inhibition at 20 µM was in the range of 25 to 50%.

In the case of `CN(Cc1ccccc1C(F)(F)F)S(=O)(=O)CCc1ccccc1[N+](=O)[O-]`, the inhibition at 20 µM is 25 to 50%.

As to `COc1ccc(CN(C)C(=O)c2cc(Br)c(Br)s2)c(OC)c1`, the inhibition at 20 µM is 25 to 50%.

Turning to `COc1ccc(CN(C(C)C2CC2)S(=O)(=O)c2cccs2)cc1` (stereo not drawn), the inhibition at 20 µM was in the range of 25 to 50%.

`CCCCc1ccc([N+]2=C3SCCCN3CC2(O)c2ccc(C)cc2)cc1` (stereo not drawn): the inhibition at 20 µM was 25 to 50%.

With `Cc1nc(Cc2nnc(SCc3ccc(-c4ccccc4C#N)cc3)o2)cs1`, the inhibition at 20 µM lay within 1 to 25%.

On to `CCC(C)Sc1ccc(NC(=O)c2ccccc2OCCOC)c(C(F)(F)F)c1` (stereo not drawn), for which the inhibition at 20 µM lay in the range of 25 to 50%.

The assay is the same for the next values; noted with them: 20 μM compound; read-out: % Inhibition at 20 μM KRas G12D Q61H.
`O=C(Cc1ccc(Cl)cc1)Nc1nnc(-c2ccccn2)[nH]1`: the inhibition at 20 µM lay in the range of 25 to 50%.

For `Fc1ccccc1-c1csc(C2CN(Cc3ccccc3)CCO2)n1` (stereo not drawn), the inhibition at 20 µM was in the range of 1 to 25%.

In the case of `COc1ccc(CC(=O)Nc2nc(-c3ccccn3)cs2)cc1OC`, the inhibition at 20 µM is 25 to 50%.

Turning to `Cc1nn(C)c(C)c1CC(=O)Nc1nnc(-c2ccccn2)[nH]1`, the inhibition at 20 µM was 25 to 50%.

`N#Cc1ccc(OCCSc2nnc(COc3ccc(F)cc3)o2)cc1`: the inhibition at 20 µM was 25 to 50%.

For `Cc1cc(C)n(-c2ccc(C(=O)Nc3nnc(-c4ccccn4)[nH]3)cn2)n1`, the inhibition at 20 µM is 25 to 50%.

Regarding `COc1ccc(-c2csc(C3CC3)n2)cc1Cl`, the inhibition at 20 µM lay in the range of 25 to 50%.

Regarding `CC(c1nc(C(C)(C)C)no1)N(C)CC12CC3CC(CC(C3)C1)C2` (stereo not drawn), the inhibition at 20 µM lay within 25 to 50%.

In the case of `COc1ccc2c(c1)CCCN2C(=O)CN(Cc1ccco1)S(=O)(=O)c1ccc(C)cc1`, the inhibition at 20 µM fell in the range of 25 to 50%.

Regarding `CC(=O)Nc1ccc(-c2nc(NC3CCCCC3)sc2C)cc1`, the inhibition at 20 µM fell in the range of 1 to 25%.

On to `Cc1n[nH]c(C2CN(C(C)c3ccncc3)CCO2)n1` (stereo not drawn), for which the inhibition at 20 µM was 25 to 50%.

As to `O=C(Nc1nc(-c2ccccn2)cs1)c1ccc(=O)n(Cc2ccccc2)n1`, the inhibition at 20 µM lay within 25 to 50%.

As for `CC(C)CN1CC(C(=O)Nc2nc(-c3ccccn3)cs2)CC1=O` (stereo not drawn), the inhibition at 20 µM is 1 to 25%.

As for `OC1CCC(Nc2nc(-c3ccccn3)nc3scc(-c4ccccc4)c23)CC1` (stereo not drawn), the inhibition at 20 µM fell in the range of 25 to 50%.

Consider `CC1CCN(C(=O)c2csc3c(O)nc(N)nc23)CC1` [drawing 2658], for which the inhibition at 20 µM lay within 1 to 25%.

For `N#Cc1csc2nc(-c3ccccn3)nc(N3CCOCC3)c12` [drawing 2819], the inhibition at 20 µM was 25 to 50%.

Turning to `c1ccc(-c2csc3nc(-c4ccccn4)nc(NCc4ccccn4)c23)cc1`, the inhibition at 20 µM lay in the range of 25 to 50%.

Take `O=C1COc2cc(C(=O)Nc3nc(-c4ccccn4)cs3)ccc2N1`: the inhibition at 20 µM was 25 to 50%.

For the molecule `O=S(=O)(CCc1ccccc1)N1CCCc2c(O)nc(-c3ccccn3)nc21` [drawing 2651], the inhibition at 20 µM came out at 0%.

For the molecule `Nc1nc(O)c2scc(-c3ccccc3)c2n1` [drawing 2692], the inhibition at 20 µM was in the range of 1 to 25%.

With `O=c1[nH]c(-c2ccnc(Oc3ccccc3Cl)c2)nc2ccsc12`, the inhibition at 20 µM lay in the range of 1 to 25%.

Consider `COc1cc(N2CCN(C(=O)c3csc4c(O)nc(-c5ccccn5)nc34)CC2)ccc1O` [drawing 2820], for which the inhibition at 20 µM was in the range of 1 to 25%.

Consider `CCCOc1ccc(OCCOC(=O)c2cccnc2SCCOc2ccc(OCCC)cc2)cc1`, for which the inhibition at 20 µM was 25 to 50%.

For the molecule `CC1=C(c2ccccc2)C2C(=O)NC(c3cnccn3)=NC2S1` (stereo not drawn), the inhibition at 20 µM fell in the range of 25 to 50%.

Take `O=C(c1csc2c(O)nc(-c3ccccn3)nc12)N1CCN(c2ccccc2Cl)CC1` [drawing 2718]: the inhibition at 20 µM lay in the range of 51 to 75%.

Turning to `CC(C)Cc1csc2[nH]c(-c3ccccn3)nc(=O)c12`, the inhibition at 20 µM fell in the range of 25 to 50%.

With `Cc1noc(CN(Cc2ccc(C#N)cc2)Cc2cccc(F)c2)n1`, the inhibition at 20 µM was 1 to 25%.

On to `CCNC(=O)CNc1nc(-c2ccccn2)nc(C)c1C`, for which the inhibition at 20 µM fell in the range of 25 to 50%.

On to `O=C(CCN1C(=O)CSc2ccccc21)Nc1nnc(-c2ccccn2)[nH]1`, for which the inhibition at 20 µM fell in the range of 25 to 50%.

With `COCCCC1CCN(C(=O)c2csc3c(O)nc(N)nc23)CC1` [drawing 2661], the inhibition at 20 µM was in the range of 25 to 50%.

As to `CCCCN(C(=O)c1nn(-c2ccccc2)nc1C)c1ccccc1`, the inhibition at 20 µM is 25 to 50%.

`CCCN(CC1CC1)S(=O)(=O)Oc1cccc(C(=O)NCc2ccccc2)c1`: the inhibition at 20 µM fell in the range of 25 to 50%.

Consider `CC(C(N)=O)N1CCOC(c2nc(-c3ccccc3)cs2)C1` (stereo not drawn), for which the inhibition at 20 µM lay within 25 to 50%.

Take `CC1CCN(C(=O)c2csc3c(O)nc(-c4ccccn4)nc23)CC1` [drawing 2674]: the inhibition at 20 µM lay within 51 to 75%.

For `Clc1csc2nc(-c3ccccn3)nc(N3CCOCC3)c12` [drawing 2707], the inhibition at 20 µM was 1 to 25%.

In the case of `CCc1cc(NC(C)C(=O)N2CCOCC2)nc(-c2ccccn2)n1` (stereo not drawn), the inhibition at 20 µM is 1 to 25%.

On to `Nc1nc(O)c2scc(C(=O)NCCc3cccnc3)c2n1` [drawing 2670], for which the inhibition at 20 µM lay within 1 to 25%.

As to `CC(C)Cc1noc(CN(C)CC23CC4CC(CC(C4)C2)C3)n1`, the inhibition at 20 µM lay within 25 to 50%.

`CCc1cc2c(=O)[nH]c(-c3ccccn3)nc2s1`: the inhibition at 20 µM was 25 to 50%.

Take `N#Cc1ccc(N2CCCC2c2ccco2)cc1C(F)(F)F` (stereo not drawn): the inhibition at 20 µM is 1 to 25%.

The same assay, now with this note: 20 μM; read-out: KRas G12D Q61H % Inh.
With `COc1ccc2c(ccn2CC(=O)Nc2nnc(-c3ccccn3)[nH]2)c1` [drawing 2470], the inhibition at 20 µM was 51 to 75%.

Take `O=C(Nc1nc(-c2ccccn2)cs1)C1CC(=O)N(c2ccc3c(c2)OCCO3)C1` (stereo not drawn) [drawing 2575]: the inhibition at 20 µM lay within 51 to 75%.

With `O=C(CCc1c[nH]c2ccccc12)Nc1nnc(-c2ccccn2)[nH]1` [drawing 2471], the inhibition at 20 µM was in the range of 51 to 75%.

On to `O=C(Nc1nnc(-c2ccccn2)[nH]1)C1Cc2cc(Cl)ccc2O1` (stereo not drawn) [drawing 2548], for which the inhibition at 20 µM is 51 to 75%.

As for `CC(C)c1noc(CCCC(=O)Nc2nnc(-c3ccccn3)[nH]2)n1` [drawing 2483], the inhibition at 20 µM was in the range of 51 to 75%.

On to `COc1cccc(CC(=O)Nc2nnc(-c3ccccn3)[nH]2)c1` [drawing 2460], for which the inhibition at 20 µM was 51 to 75%.

In the case of `CC(Oc1ccc(C#N)cc1)C(=O)Nc1nnc(-c2ccccn2)[nH]1` (stereo not drawn) [drawing 2525], the inhibition at 20 µM lay within 51 to 75%.

`O=C(COc1ccccc1)N1CCCc2c(O)nc(-c3ccccn3)nc21` [drawing 2638]: the inhibition at 20 µM is 76 to 100%.

With `O=C(Cc1cccc(F)c1)Nc1nnc(-c2ccccn2)[nH]1` [drawing 2497], the inhibition at 20 µM lay in the range of 51 to 75%.

Consider `C[C@H](NS(=O)(=O)c1ccccc1F)C(=O)Nc1nnc(-c2ccccn2)[nH]1` [drawing 2478], for which the inhibition at 20 µM was 51 to 75%.

As for `COC(=O)c1ccc(C(=O)NCC2(c3ccccc3OC)CCCC2)nc1` [drawing 2623], the inhibition at 20 µM lay within 25 to 50%.

With `O=C(Nc1nnc(-c2ccccn2)[nH]1)c1ccn(-c2cccc(F)c2)n1` [drawing 2468], the inhibition at 20 µM is 51 to 75%.

For the molecule `Cc1ccc(-c2ccc(Oc3ccc(C(F)(F)F)cn3)c(C)c2)cc1` [drawing 2621], the inhibition at 20 µM was in the range of 51 to 75%.

Staying with this assay, now noted: read-out: KRas G12D Q61H IC50.
Usually IC50 stands for the concentration needed to halve the response being measured. Take `O=C(CCc1c[nH]c2ccccc12)Nc1nnc(-c2ccccn2)[nH]1` [drawing 2471]: the IC50 was below 5 µM.
